Assay results published in patent US20220378706A1, “PHARMACEUTICAL COMPOSITION COMPRISING PDE9 INHIBITOR” (Eisai R&D Management Co., Ltd., priority 2017, published 2022).
Read-outs that look alike come from different tables or passages of the source.

Assay: Single dose clinical study: plasma Compound A pharmacokinetics
Type: in vivo, human
Settings: human, plasma, po, plasma
Description: This was a single center, single dose, randomized, double blind, placebo controlled study in healthy subjects. It consisted of 4 parts: Parts A, B, C, and D. Each of the four study parts had 2 phases: Prerandomization Phase and Randomization Phase. The Prerandomization Phase lasted up to 30 days and consisted of a Screening Period and a Baseline Period, during which each subject's study eligibility was determined and baseline assessments were performed.
In Part A, there were 8 sequential cohorts of healthy adult subjects (18-50 years of age). Subjects were randomly assigned to Compound A or placebo in a ratio of 6:2, respectively. Subjects in the Compound A cohorts were treated with single ascending doses of 10, 25, 50, 100, 200, 400, 800, or 1200 mg.
In Part B, there were 4 cohorts of healthy adult subjects (18-50 years of age). There were 8 subjects in Cohort 1, with 6 subjects randomly assigned to receive single doses of Compound A (400 mg) and 2 subjects randomly assigned to receive placebo. There were 7 subjects in Cohort 2 and Cohort 3, each with 6 subjects randomly assigned to receive single doses of Compound A (100 and 200 mg, respectively) and 1 subject randomly assigned to receive placebo. The dose of 100 mg selected in Cohort 2 was based on preliminary analysis of Cohort 1 data; this dose was predicted from PK/PD modeling to achieve a sustained CSF cGMP increase from baseline of approximately 200% when administered to steady state, and thereby provided a potentially therapeutic dose for further evaluation in future studies. There were 7 subjects in Cohort 4, with 6 subjects randomly assigned to receive a single dose of Compound A (50 mg [n=3] or 75 mg [n=3]) and 1 subject randomly assigned to receive placebo. The doses for Cohorts 3 and 4 were selected based on PK/PD modeling of the data in Cohorts 1 and 2.
Subjects in Cohort 2 who had received Compound A 100 mg or placebo under fasted conditions (1st Treatment Period) also participated in an evaluation of food effect on the PK of Compound A (2nd Treatment Period). After a washout period of at least 13 days (or 5 half-lives of Compound A, whichever was longer), subjects were admitted to the clinic for baseline assessments (2nd Baseline Period) and then received a single dose of the same treatment (Compound A 100 mg or placebo) after consuming a high fat and high calorie meal over 30 minutes. Blood PK samples were collected at prespecified time points. Safety evaluations were also assessed. CSF was not collected for PD evaluation during the 2nd Treatment Period. A Follow Up Visit occurred on Day 10 of Treatment Period 2.
In Part C, there was 1 cohort of 8 healthy elderly subjects (65 to 85 years of age) randomly assigned to receive a single dose of Compound A 100 mg or placebo in a ratio of 6:2, respectively.
In Part D, 3 cohorts of healthy adult Japanese subjects were randomized in parallel. There were 7 subjects in each cohort and subjects were randomly assigned to receive single doses of Compound A (25, 100, or 400 mg) or placebo in a ratio of 6:1, respectively.
Blood samples for determination of plasma Compound A concentrations were collected from predose to 216 hours postdose. On Day 1, blood PK samples were collected at predose and postdose 0.5 (30 minutes), 1, 1.5, 2, 3, 4, 5, 6, 8, 12, and 18 hours. Thereafter, samples were collected on Day 2 (24 and 36 hours postdose), Day 3 (48 hours postdose), Day 4 (72 hours postdose), Day 5 (96 hours postdose), Day 6 (120 hours postdose), Day 7 (144 hours postdose), and Day 10 (216 hours postdose).
Blood samples for determination of plasma Compound A concentrations were collected from predose to 216 hours postdose. For all cohorts, blood PK samples were collected on Day 1 at predose and postdose at 0.5 (30 minutes), 1, 1.5, 2, 3, 4, 5, 6, 8, 10, 12, and 18 hours. […]

Compound `COc1ncc(C)c(-c2ccc3c(c2)[nH]c(=O)c2cnn([C@H]4CCOC4)c23)c1C` [Compound A, (S)-7-(2-methoxy-3,5-dimethylpyridin-4-yl)-1-(tetrahydrofuran-3-yl)-1H-pyrazolo[4,3-c]quin olin-4(5H)-one] has a Cmax (100 mg, Japanese Subjects (Part D), single oral 100 mg, read-out: Cmax GM (% CV)) of 492 ng/mL, a Vd/F (100 mg, Japanese Subjects (Part D), single oral 100 mg, read-out: Vz/F GM (% CV)) of 240 L and a half-life (100 mg, Japanese Subjects (Part D), single oral 100 mg, read-out: t1/2 Mean (SD) (converted)) of 23.9 h. The Tmax (100 mg, Japanese Subjects (Part D), single oral 100 mg, read-out: tmax Median) was 2.52 h, the AUC(0-inf) (100 mg, Non-Japanese Subjects (Parts A,B), single oral 100 mg, read-out: AUC(0-inf) GM) was 15000 ng·h/mL and the Cmax (100 mg, Non-Japanese Subjects (Parts A,B), single oral 100 mg, read-out: Cmax GM (% CV)) was 373 ng/mL. The Vd/F (100 mg, Non-Japanese Subjects (Parts A,B), single oral 100 mg, read-out: Vz/F GM (% CV)) was 268 L, the half-life (100 mg, Non-Japanese Subjects (Parts A,B), single oral 100 mg, read-out: t1/2 Mean (SD) (converted)) was 28.6 h and the Tmax (100 mg, Non-Japanese Subjects (Parts A,B), single oral 100 mg, read-out: tmax Median) was 2.99 h. For the same compound, the AUC(0-t) (100 mg, Part B 100 mg cohort, single oral 100 mg, Fasted, read-out: AUC (0-24 h) GM (% CV)) was 6140 ng·h/mL, the AUC(0-t) (100 mg, Part B 100 mg cohort, single oral 100 mg, Fasted, read-out: AUC (0-30 h) GM (% CV)) was 7360 ng·h/mL and the AUC(0-t) (100 mg, Part B 100 mg cohort, single oral 100 mg, Fasted, read-out: AUC (0-72 h) GM (% CV)) was 12200 ng·h/mL. The AUC(0-inf) (100 mg, Part B 100 mg cohort, single oral 100 mg, Fasted, read-out: AUC (0-inf) GM (% CV)) was 14500 ng·h/mL, the AUC(0-t) (100 mg, Part B 100 mg cohort, single oral 100 mg, Fasted, read-out: AUC (0-t) GM (% CV)) was 14400 ng·h/mL and the Cmax (100 mg, Part B 100 mg cohort, single oral 100 mg, Fasted, read-out: Cmax GM (%CV)) was 371 ng/mL. The Vd/F (100 mg, Part B 100 mg cohort, single oral 100 mg, Fasted, read-out: Vz/F GM (% CV)) was 252 L, the half-life (100 mg, Part B 100 mg cohort, single oral 100 mg, Fasted, read-out: t1/2 Mean (SD) (converted)) was 25.7 h and the Tmax (100 mg, Part B 100 mg cohort, single oral 100 mg, Fasted, read-out: tmax Median (Min, Max)) was 2.99 h. The AUC(0-t) (100 mg, Part B 100 mg cohort, single oral 100 mg, Fed (high-fat meal), read-out: AUC (0-24 h) GM (% CV)) was 7610 ng·h/mL, the AUC(0-t) (100 mg, Part B 100 mg cohort, single oral 100 mg, Fed (high-fat meal), read-out: AUC (0-30 h) GM (% CV)) was 8980 ng·h/mL and the AUC(0-t) (100 mg, Part B 100 mg cohort, single oral 100 mg, Fed (high-fat meal), read-out: AUC (0-72 h) GM (% CV)) was 14500 ng·h/mL. It also gave an AUC(0-inf) (100 mg, Part B 100 mg cohort, single oral 100 mg, Fed (high-fat meal), read-out: AUC (0-inf) GM (% CV)) of 17300 ng·h/mL, an AUC(0-t) (100 mg, Part B 100 mg cohort, single oral 100 mg, Fed (high-fat meal), read-out: AUC (0-t) GM (% CV)) of 17100 ng·h/mL and a Cmax (100 mg, Part B 100 mg cohort, single oral 100 mg, Fed (high-fat meal), read-out: Cmax GM (%CV)) of 536 ng/mL. The Vd/F (100 mg, Part B 100 mg cohort, single oral 100 mg, Fed (high-fat meal), read-out: Vz/F GM (% CV)) was 212 L, the half-life (100 mg, Part B 100 mg cohort, single oral 100 mg, Fed (high-fat meal), read-out: t1/2 Mean (SD) (converted)) was 26 h and the Tmax (100 mg, Part B 100 mg cohort, single oral 100 mg, Fed (high-fat meal), read-out: tmax Median (Min, Max)) was 3.49 h. For the same compound, the AUC(0-t) (100 mg, healthy adults (Parts A,B), single oral 100 mg, fasted, read-out: AUC(0-24 h) GM) was 5730 ng·h/mL, the AUC(0-t) (100 mg, healthy adults (Parts A,B), single oral 100 mg, fasted, read-out: AUC(0-30 h) GM) was 6890 ng·h/mL and the AUC(0-t) (100 mg, healthy adults (Parts A,B), single oral 100 mg, fasted, read-out: AUC(0-72 h) GM) was 11900 ng·h/mL. The AUC(0-inf) (100 mg, healthy adults (Parts A,B), single oral 100 mg, fasted, read-out: AUC(0-inf) GM) was 15000 ng·h/mL, the AUC(0-t) (100 mg, healthy adults (Parts A,B), single oral 100 mg, fasted, read-out: AUC(0-t) GM) was 14800 ng·h/mL and the Cmax (100 mg, healthy adults (Parts A,B), single oral 100 mg, fasted, read-out: Cmax GM) was 373 ng/mL. It also gave a Vd/F (100 mg, healthy adults (Parts A,B), single oral 100 mg, fasted, read-out: Vz/F GM) of 268 L, a half-life (100 mg, healthy adults (Parts A,B), single oral 100 mg, fasted, read-out: t1/2 Mean (converted)) of 28.6 h and a Tmax (100 mg, healthy adults (Parts A,B), single oral 100 mg, fasted, read-out: tmax Median) of 2.99 h. For the same compound, the AUC(0-inf) (100 mg, healthy elderly subjects (Part C), single oral 100 mg, read-out: AUC (0-inf) GM (% CV)) was 21300 ng·h/mL, the Cmax (100 mg, healthy elderly subjects (Part C), single oral 100 mg, read-out: Cmax GM (% CV)) was 543 ng/mL and the Vd/F (100 mg, healthy elderly subjects (Part C), single oral 100 mg, read-out: Vz/F GM (% CV)) was 253 L. The half-life (100 mg, healthy elderly subjects (Part C), single oral 100 mg, read-out: t1/2 Mean (SD) (converted)) was 38.1 h, the Tmax (100 mg, healthy elderly subjects (Part C), single oral 100 mg, read-out: tmax Median (Min, Max)) was 2.6 h and the AUC(0-t) (200 mg, healthy adults (Parts A,B), single oral 200 mg, fasted, read-out: AUC(0-24 h) GM) was 7800 ng·h/mL. It also gave an AUC(0-t) (200 mg, healthy adults (Parts A,B), single oral 200 mg, fasted, read-out: AUC(0-30 h) GM) of 9440 ng·h/mL, an AUC(0-t) (200 mg, healthy adults (Parts A,B), single oral 200 mg, fasted, read-out: AUC(0-72 h) GM) of 16800 ng·h/mL and an AUC(0-inf) (200 mg, healthy adults (Parts A,B), single oral 200 mg, fasted, read-out: AUC(0-inf) GM) of 22400 ng·h/mL. For the same compound, the AUC(0-t) (200 mg, healthy adults (Parts A,B), single oral 200 mg, fasted, read-out: AUC(0-t) GM) was 22000 ng·h/mL, the Cmax (200 mg, healthy adults (Parts A,B), single oral 200 mg, fasted, read-out: Cmax GM) was 539 ng/mL and the Vd/F (200 mg, healthy adults (Parts A,B), single oral 200 mg, fasted, read-out: Vz/F GM) was 384 L. It also gave a half-life (200 mg, healthy adults (Parts A,B), single oral 200 mg, fasted, read-out: t1/2 Mean (converted)) of 30.9 h, a Tmax (200 mg, healthy adults (Parts A,B), single oral 200 mg, fasted, read-out: tmax Median) of 2 h and an AUC(0-inf) (400 mg, Japanese Subjects (Part D), single oral 400 mg, read-out: AUC(0-inf) GM) of 46500 ng·h/mL. The Cmax (400 mg, Japanese Subjects (Part D), single oral 400 mg, read-out: Cmax GM (% CV)) was 1180 ng/mL, the Vd/F (400 mg, Japanese Subjects (Part D), single oral 400 mg, read-out: Vz/F GM (% CV)) was 364 L and the half-life (400 mg, Japanese Subjects (Part D), single oral 400 mg, read-out: t1/2 Mean (SD) (converted)) was 30 h. For the same compound, the Tmax (400 mg, Japanese Subjects (Part D), single oral 400 mg, read-out: tmax Median) was 2.25 h.
